Experimental data published in the supplement of paper PMC10307832.

What follows are cell lines tested with CN1CCC(CC1)OC2=CC(=C(C=C2)NC3=NC=C4C(=N3)N(C(=O)N4C)C5CCCC5)OC [AZ3146] + COc1cccc2cc(-c3nc([C@H]4CC[C@H](C(=O)O)CC4)n4ncnc(N)c34)[nH]c12 [OSI-027] (partner 0.5 µM) (assay: relative viability (nuclei count vs DMSO), 5 days (fraction); higher = more cells survive). Settings: first compound 0.08 µM.
Summary of the method: (§1)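 Relative viability is defined as nuclei in treated wells over nuclei in vehicle wells. Duplicate plates were run and medians reported. Lung cancer cell lines in 1536-well plates were dosed by pin tool one day after seeding, with one drug or with a fixed anchor-drug dose plus five library-drug doses (not always all listed) in √10 steps, and nuclei were counted after 5 days.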

Cell Line | relative viability
LCLC-97TM1 | 0.501
NCI-H1651 | 0.657
NCI-H2009 | 0.631
ABC-1 | 0.466
SK-MES-1 | 0.659
NCI-H727 | 0.674
SW 1573 | 0.678

Same assay, conditions: first compound 0.253 µM

Cell Line | relative viability
LCLC-97TM1 | 0.585
NCI-H1651 | 0.745
NCI-H2009 | 0.621
ABC-1 | 0.484
SK-MES-1 | 0.621
NCI-H727 | 0.56
SW 1573 | 0.633

Same assay, conditions: first compound 0.8 µM

Cell Line | relative viability
LCLC-97TM1 | 0.364
NCI-H1651 | 0.66
NCI-H2009 | 0.651
ABC-1 | 0.454
SK-MES-1 | 0.568
NCI-H727 | 0.595
SW 1573 | 0.453

Same assay, conditions: first compound 2.53 µM

Cell Line | relative viability
LCLC-97TM1 | 0.415
NCI-H1651 | 0.692
NCI-H2009 | 0.703
ABC-1 | 0.614
SK-MES-1 | 0.569
NCI-H727 | 0.671
SW 1573 | 0.662

Same assay, conditions: first compound 8 µM

Cell Line | relative viability
LCLC-97TM1 | 0.396
NCI-H1651 | 0.639
NCI-H2009 | 0.436
ABC-1 | 0.472
SK-MES-1 | 0.452
NCI-H727 | 0.413
SW 1573 | 0.204

Each cell line was assayed with CCOC(=O)CCNc1cc(N2CCc3ccccc3CC2)nc(-c2ccccn2)n1 [GSK-J4] + C[C@@H](Oc1cc(-c2cnn(C3CCNCC3)c2)cnc1N)c1c(Cl)ccc(F)c1Cl [Crizotinib] (partner 1 µM) in the same assay as above. Settings: first compound 0.5 µM.
Summary of the method: as §1

Cell Line | relative viability
NCI-H1651 | 0.854
NCI-H2009 | 0.955
ABC-1 | 1.03
SK-MES-1 | 0.987
NCI-H727 | 0.782
SW 1573 | 0.701

Same assay, conditions: first compound 1.581 µM

Cell Line | relative viability
NCI-H1651 | 0.737
NCI-H2009 | 1
ABC-1 | 0.953
SK-MES-1 | 0.977
SW 1573 | 0.726

Same assay, conditions: first compound 5 µM

Cell Line | relative viability
LCLC-97TM1 | 0.455
NCI-H1651 | 0.92
NCI-H2009 | 0.77
ABC-1 | 1.17
SK-MES-1 | 0.724
NCI-H727 | 1.01
SW 1573 | 0.832

Same assay, conditions: first compound 15.81 µM

Cell Line | relative viability
LCLC-97TM1 | 0.269
NCI-H1651 | 0.817
NCI-H2009 | 1.05
ABC-1 | 0.81
SK-MES-1 | 0.939
NCI-H727 | 0.771
SW 1573 | 0.754

Same assay, conditions: first compound 50 µM

Cell Line | relative viability
LCLC-97TM1 | 0.323
NCI-H1651 | 0.85
NCI-H2009 | 0.789
ABC-1 | 0.343
SK-MES-1 | 0.942
NCI-H727 | 0.443
SW 1573 | 0.608

The cell lines below were run with CCOC(=O)CCNc1cc(N2CCc3ccccc3CC2)nc(-c2ccccn2)n1 [GSK-J4] + C[C@]1(O)C[C@@H](c2nc(-c3ccc4ccc(-c5ccccc5)nc4c3)c3c(N)nccn32)C1 [Linsitinib] (partner 1 µM) in the same assay as above. Settings: first compound 0.5 µM.
Summary of the method: as §1

Cell Line | relative viability
NCI-H1651 | 0.959
NCI-H2009 | 1.19
ABC-1 | 0.788
SK-MES-1 | 0.994
NCI-H727 | 0.245
SW 1573 | 0.81

Same assay, conditions: first compound 1.581 µM

Cell Line | relative viability
NCI-H1651 | 0.878
NCI-H2009 | 0.873
ABC-1 | 0.632
SK-MES-1 | 0.975
SW 1573 | 0.755

Same assay, conditions: first compound 5 µM

Cell Line | relative viability
LCLC-97TM1 | 0.213
NCI-H1651 | 1.05
NCI-H2009 | 0.983
ABC-1 | 1.07
SK-MES-1 | 0.827
NCI-H727 | 0.568
SW 1573 | 0.802

Same assay, conditions: first compound 15.81 µM

Cell Line | relative viability
LCLC-97TM1 | 0.23
NCI-H1651 | 0.9
NCI-H2009 | 1.17
ABC-1 | 0.802
SK-MES-1 | 0.993
NCI-H727 | 0.267
SW 1573 | 0.703

Same assay, conditions: first compound 50 µM

Cell Line | relative viability
LCLC-97TM1 | 0.146
NCI-H1651 | 0.939
NCI-H2009 | 0.947
ABC-1 | 0.378
SK-MES-1 | 0.994
NCI-H727 | 0.222
SW 1573 | 0.595

The cell lines below were run with CCOC(=O)CCNc1cc(N2CCc3ccccc3CC2)nc(-c2ccccn2)n1 [GSK-J4] + CS(=O)(=O)CCNCc1ccc(-c2ccc3ncnc(Nc4ccc(OCc5cccc(F)c5)c(Cl)c4)c3c2)o1 [Lapatinib] (partner 2 µM) in the same assay as above. Settings: first compound 0.5 µM.
Summary of the method: as §1

Cell Line | relative viability
NCI-H1651 | 0.84
NCI-H2009 | 0.828
ABC-1 | 1.03
SK-MES-1 | 0.452
NCI-H727 | 0.827
SW 1573 | 1.05

Same assay, conditions: first compound 1.581 µM

Cell Line | relative viability
NCI-H1651 | 0.779
NCI-H2009 | 0.144
ABC-1 | 1.17
SK-MES-1 | 0.495
SW 1573 | 1.05

Same assay, conditions: first compound 5 µM

Cell Line | relative viability
LCLC-97TM1 | 1.33
NCI-H1651 | 0.814
NCI-H2009 | 0.56
ABC-1 | 1.21
SK-MES-1 | 0.459
NCI-H727 | 0.996
SW 1573 | 0.728

Same assay, conditions: first compound 15.81 µM

Cell Line | relative viability
LCLC-97TM1 | 0.722
NCI-H1651 | 0.863
NCI-H2009 | 0.971
ABC-1 | 0.935
SK-MES-1 | 0.392
NCI-H727 | 0.795
SW 1573 | 0.865

Same assay, conditions: first compound 50 µM

Cell Line | relative viability
LCLC-97TM1 | 0.885
NCI-H1651 | 0.839
NCI-H2009 | 0.739
ABC-1 | 1.05
SK-MES-1 | 0.421
NCI-H727 | 0.5
SW 1573 | 1.02
